Measured values from ChEMBL document CHEMBL1201862, “PubChem BioAssay data set” (2004).
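Five concentrations, 48 hours, 96-well plates. GI50: concentration for 50% inhibition of growth.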 Calls of active or inactive are those of the source. No stated cut-off is given here; in the data, active = GI50 up to about 1.1 µM and inactive = higher. Positions of bridges follow the written chain, without caps; N, C: chain ends. Residues, ends and D or L forms follow the SMILES beside them.

Assays:
Experiment in all cases: NCI anticancer screen, dose series, 48 h
786-0 = tested on: 786-0
A549 = tested on: A549
BT-549 = tested on: BT-549
HL-60 = tested on: HL-60
K562 = tested on: K562
KM12 = tested on: KM12
M14 = tested on: M14
MDA-MB-231 = tested on: MDA-MB-231
NCI-H460 = tested on: NCI-H460
NCI-H522 = tested on: NCI-H522
OVCAR-4 = tested on: OVCAR-4
OVCAR-5 = tested on: OVCAR-5
RPMI-8226 = tested on: RPMI-8226
SF-295 = tested on: SF-295
SN12C = tested on: SN12C
SR = tested on: SR
SW-620 = tested on: SW-620
T47D = tested on: T47D
U-251 = tested on: U-251
UACC-257 = tested on: UACC-257

CNC=O
GI50 (786-0): > 10000 µM (inactive)
GI50 (A549): > 10000 µM (inactive)
GI50 (BT-549): > 10000 µM (inactive)
GI50 (HL-60): > 10000 µM (inactive)
GI50 (K562): > 10000 µM (inactive)
GI50 (KM12): > 10000 µM (inactive)
GI50 (M14): > 10000 µM (inactive)
GI50 (MDA-MB-231): > 10000 µM (inactive)
GI50 (NCI-H460): > 10000 µM (inactive)
GI50 (NCI-H522): > 10000 µM (inactive)
GI50 (OVCAR-4): > 10000 µM (inactive)
GI50 (OVCAR-5): > 10000 µM (inactive)
GI50 (RPMI-8226): > 10000 µM (inactive)
GI50 (SF-295): > 9510 µM (inactive)
GI50 (SN12C): > 7740 µM (inactive)
GI50 (SR): > 10000 µM (inactive)
GI50 (SW-620): > 10000 µM (inactive)
GI50 (T47D): > 10000 µM (inactive)
GI50 (U-251): 9930 µM (inactive)
GI50 (UACC-257): > 10000 µM (inactive)

N=C(N)SCc1ccc(Cl)c2ccccc12.O=[N+]([O-])c1c(O)c(Cl)cc(Cl)c1Cl
GI50 (786-0): 11.3 µM (inactive)
GI50 (A549): 14.6 µM (inactive)
GI50 (BT-549): 14.8 µM (inactive)
GI50 (HL-60): 4.38 µM (inactive)
GI50 (K562): 4.66 µM (inactive)
GI50 (KM12): 13.6 µM (inactive)
GI50 (M14): 10.3 µM (inactive)
GI50 (MDA-MB-231): 8.22 µM (inactive)
GI50 (NCI-H460): 8.32 µM (inactive)
GI50 (NCI-H522): 4.56 µM (inactive)
GI50 (OVCAR-4): 4.65 µM (inactive)
GI50 (OVCAR-5): 13 µM (inactive)
GI50 (RPMI-8226): 2.64 µM (inactive)
GI50 (SF-295): 11.6 µM (inactive)
GI50 (SN12C): 11.3 µM (inactive)
GI50 (SR): 5.42 µM (inactive)
GI50 (SW-620): 12.2 µM (inactive)
GI50 (T47D): 4.19 µM (inactive)
GI50 (U-251): 12.9 µM (inactive)
GI50 (UACC-257): 4.72 µM (inactive)

CCC(CO)Nc1nc(NCc2ccccc2)c2ncn(C(C)C)c2n1 (stereo not drawn) [(RS)-ROSCOVITINE]
GI50 (786-0): 20.2 µM (inactive)
GI50 (A549): 23.3 µM (inactive)
GI50 (BT-549): 18.5 µM (inactive)
GI50 (HL-60): 17.5 µM (inactive)
GI50 (K562): 46.6 µM (inactive)
GI50 (KM12): 12.7 µM (inactive)
GI50 (M14): 16.8 µM (inactive)
GI50 (MDA-MB-231): 25.8 µM (inactive)
GI50 (NCI-H460): 16.2 µM (inactive)
GI50 (NCI-H522): 16.5 µM (inactive)
GI50 (OVCAR-4): 20.2 µM (inactive)
GI50 (OVCAR-5): 20.7 µM (inactive)
GI50 (RPMI-8226): 22.6 µM (inactive)
GI50 (SF-295): 19.3 µM (inactive)
GI50 (SN12C): 32.7 µM (inactive)
GI50 (SR): 7.1 µM (inactive)
GI50 (SW-620): 25.2 µM (inactive)
GI50 (T47D): 32.8 µM (inactive)
GI50 (U-251): 27.9 µM (inactive)
GI50 (UACC-257): 30.3 µM (inactive)

COC(=O)C1CCC(=O)NCCCCC(NC(=O)C(N)CC(=O)O)C(=O)N1 (stereo not drawn) (H-Asp-Lys-Glu-OMe; lactam 2-3; configuration not given here)
GI50 (786-0): 71.9 µM (inactive)
GI50 (A549): > 100 µM (inactive)
GI50 (BT-549): > 100 µM (inactive)
GI50 (HL-60): 29.4 µM (inactive)
GI50 (K562): > 100 µM (inactive)
GI50 (KM12): > 100 µM (inactive)
GI50 (M14): > 100 µM (inactive)
GI50 (MDA-MB-231): > 100 µM (inactive)
GI50 (NCI-H460): 9.68 µM (inactive)
GI50 (NCI-H522): > 100 µM (inactive)
GI50 (OVCAR-4): > 100 µM (inactive)
GI50 (OVCAR-5): > 100 µM (inactive)
GI50 (RPMI-8226): > 100 µM (inactive)
GI50 (SF-295): > 100 µM (inactive)
GI50 (SN12C): > 100 µM (inactive)
GI50 (SR): > 100 µM (inactive)
GI50 (SW-620): > 100 µM (inactive)
GI50 (T47D): > 100 µM (inactive)
GI50 (U-251): > 100 µM (inactive)
GI50 (UACC-257): > 100 µM (inactive)

O=C1/C(=C/c2ccc(Cl)cc2)CCC1CN1CCOCC1 (stereo not given)
GI50 (786-0): 2.48 µM (inactive)
GI50 (A549): 27.4 µM (inactive)
GI50 (BT-549): 11.3 µM (inactive)
GI50 (HL-60): 0.836 µM (active)
GI50 (K562): 1.86 µM (inactive)
GI50 (KM12): 3.33 µM (inactive)
GI50 (M14): 5.48 µM (inactive)
GI50 (MDA-MB-231): 3.83 µM (inactive)
GI50 (NCI-H460): 14.9 µM (inactive)
GI50 (NCI-H522): 1.81 µM (inactive)
GI50 (OVCAR-4): 17.5 µM (inactive)
GI50 (OVCAR-5): 23.2 µM (inactive)
GI50 (RPMI-8226): 0.818 µM (active)
GI50 (SF-295): 17.5 µM (inactive)
GI50 (SN12C): 3.78 µM (inactive)
GI50 (SR): 0.687 µM (active)
GI50 (SW-620): 2.47 µM (inactive)
GI50 (T47D): 0.678 µM (active)
GI50 (U-251): 15.9 µM (inactive)
GI50 (UACC-257): 8.73 µM (inactive)
